{"source": "ChEMBL document CHEMBL1128627", "about": "“Photoactivatable analogues of a Substance P non-peptidic antagonist, for probing the antagonist binding site of the NK1 receptor” (Bioorg Med Chem Lett, 1995)", "molecular_target": "Substance-P receptor (Homo sapiens, UniProt P25103)", "sequence (P25103 whole entry)": "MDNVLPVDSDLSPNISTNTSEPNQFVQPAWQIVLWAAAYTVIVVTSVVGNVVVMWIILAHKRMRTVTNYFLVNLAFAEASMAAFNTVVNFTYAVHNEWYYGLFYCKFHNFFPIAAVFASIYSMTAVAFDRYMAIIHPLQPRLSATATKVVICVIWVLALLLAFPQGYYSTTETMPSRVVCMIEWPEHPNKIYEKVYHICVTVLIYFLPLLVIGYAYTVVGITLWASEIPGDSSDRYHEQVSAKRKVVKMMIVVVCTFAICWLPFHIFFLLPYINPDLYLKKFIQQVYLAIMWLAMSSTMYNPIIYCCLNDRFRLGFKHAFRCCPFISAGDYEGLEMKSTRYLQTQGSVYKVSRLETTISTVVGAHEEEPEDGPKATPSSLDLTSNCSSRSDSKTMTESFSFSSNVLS", "assay": "In vitro binding affinity against human NK1 receptor expressed in CHO cells using [3H]-substance P as radioligand", "assay_type": "cell-based"}
{"smiles": "COc1ccc(C(=O)c2ccccc2)cc1CN[C@H]1CCCN[C@H]1c1ccccc1", "values": [{"measurement": "Ki", "value": 0.398, "unit": "nM"}]}
{"smiles": "COc1ccc(C2(C(F)(F)F)N=N2)cc1CN[C@H]1CCCN[C@H]1c1ccccc1", "values": [{"measurement": "Ki", "value": 0.794, "unit": "nM"}]}
